US20250243245A1 (priority 2022, published 2025)
Where a SMILES comes first, the peptide text is derived from it.

Tested on: E. coli strain BL21
Conditions: BL21, 24 h

Compound	MIC
CC[C@H](C)[C@H](N)C(=O)N[C@@H](CCC(=O)O)C(=O)N[C@@H](CCCNC(=N)N)C(=O)N[C@@H](CO)C(=O)N[C@@H](CCCNC(=N)N)C(=O)N[C@@H](CC(N)=O)C(=O)N[C@@H](CC(C)C)C(=O)N[C@@H](CC(=O)O)C(=O)N[C@@H](Cc1c[nH]c2ccccc12)C(=O)N[C@@H](Cc1ccc(O)cc1)C(=O)N[C@@H](CCCCN)C(=O)NCC(=O)N1CCC[C@H]1C(=O)N[C@H](C(=O)N[C@@H](CC(C)C)C(=O)N[C@@H](CC(C)C)C(=O)N[C@@H](CC(=O)O)C(=O)N[C@@H](C)C(=O)N[C@@H](CC(C)C)C(=O)N[C@@H](CCCCN)C(=O)N[C@@H](CC(N)=O)C(=O)N[C@@H](CC(C)C)C(=O)N[C@@H](CC(N)=O)C(=O)N[C@@H](CCC(=O)O)C(=O)NCC(=O)N[C@@H](CCCCN)C(=O)N[C@@H](CCCNC(=N)N)C(=O)N1CCC[C@H]1C(=O)N[C@@H](CO)C(=O)N[C@@H](CC(=O)O)C(=O)N[C@@H](CCCCN)C(=O)O)[C@@H](C)O [Peptide I31LB] (H-IERSRNLDWYKGPTLLDALKNLNEGKRPSDK-OH; N-terminus and C-terminus assumed)	>20 mM
CC(C)C[C@H](NC(=O)[C@H](CCC(N)=O)NC(=O)[C@H](CCC(=O)O)NC(=O)[C@H](CO)NC(=O)[C@H](CC(C)C)NC(=O)[C@H](CCCNC(=N)N)NC(=O)[C@@H]1CCCN1C(=O)[C@@H](N)CCCCN)C(=O)N[C@@H](CCC(N)=O)C(=O)N[C@@H](CCC(=O)O)C(=O)N[C@@H](CC(C)C)C(=O)N[C@H](C(=O)N[C@@H](CCCNC(=N)N)C(=O)N[C@@H](CCCNC(=N)N)C(=O)N[C@@H](CC(C)C)C(=O)N[C@@H](CC(C)C)C(=O)N[C@@H](CC(=O)O)C(=O)N[C@@H](CO)C(=O)N1CCC[C@H]1C(=O)N[C@@H](CC(C)C)C(=O)N[C@@H](CCC(=O)O)C(=O)N[C@@H](CCCNC(=N)N)C(=O)N[C@@H](CCCNC(=N)N)C(=O)N[C@@H](Cc1c[nH]c2ccccc12)C(=O)N[C@@H](Cc1c[nH]c2ccccc12)C(=O)N[C@@H](CCC(=O)O)C(=O)N[C@@H](Cc1c[nH]c2ccccc12)C(=O)N[C@@H](Cc1c[nH]c2ccccc12)C(=O)N[C@@H](CCCNC(=N)N)C(=O)N[C@@H](CCCNC(=N)N)C(=O)O)[C@@H](C)O [UGK-33] (H-KPRLSEQLQELTRRLLDSPLERRWWEWWRR-OH; N-terminus and C-terminus assumed)	>20 mM
CSCC[C@H](NC(=O)[C@H](Cc1c[nH]c2ccccc12)NC(=O)[C@H](CCC(=O)O)NC(=O)[C@H](Cc1c[nH]c2ccccc12)NC(=O)[C@H](Cc1c[nH]c2ccccc12)NC(=O)[C@H](CCCNC(=N)N)NC(=O)[C@H](CCCNC(=N)N)NC(=O)[C@H](CCC(=O)O)NC(=O)[C@H](CC(C)C)NC(=O)[C@@H]1CCCN1C(=O)[C@H](CO)NC(=O)[C@H](CC(=O)O)NC(=O)[C@H](CC(C)C)NC(=O)[C@H](CC(C)C)NC(=O)[C@H](CCCNC(=N)N)NC(=O)[C@H](CCCNC(=N)N)NC(=O)[C@@H](NC(=O)[C@H](CC(C)C)NC(=O)[C@H](CCC(=O)O)NC(=O)[C@H](CCC(N)=O)NC(=O)[C@H](CC(C)C)NC(=O)[C@H](CCC(N)=O)NC(=O)[C@H](CCC(=O)O)NC(=O)[C@H](CO)NC(=O)CNC(=O)[C@H](CCCNC(=N)N)NC(=O)[C@@H]1CCCN1C(=O)[C@@H](N)CCCCN)[C@@H](C)O)C(=O)N[C@@H](CCCNC(=N)N)C(=O)N[C@@H](CCCNC(=N)N)C(=O)O [UGK-29] (H-KPRGSEQLQELTRRLLDSPLERRWWEWMRR-OH; N-terminus and C-terminus assumed)	>20 mM
CC[C@H](C)[C@H](N)C(=O)N[C@@H](CCC(=O)O)C(=O)N[C@@H](CCCNC(=N)N)C(=O)N[C@@H](CO)C(=O)N[C@@H](CCCNC(=N)N)C(=O)N[C@@H](CC(N)=O)C(=O)N[C@@H](CC(C)C)C(=O)N[C@@H](CC(=O)O)C(=O)N[C@@H](Cc1c[nH]c2ccccc12)C(=O)N[C@@H](Cc1ccc(O)cc1)C(=O)N[C@@H](CCCCN)C(=O)NCC(=O)N1CCC[C@H]1C(=O)N[C@H](C(=O)N[C@@H](CC(C)C)C(=O)N[C@@H](CC(C)C)C(=O)N[C@@H](CC(=O)O)C(=O)N[C@@H](C)C(=O)N[C@@H](CC(C)C)C(=O)N[C@@H](CCCCN)C(=O)N[C@@H](CC(N)=O)C(=O)N[C@@H](CC(C)C)C(=O)N[C@@H](CC(N)=O)C(=O)N[C@@H](CCC(=O)O)C(=O)NCC(=O)N[C@@H](CCCCN)C(=O)N[C@@H](CCCNC(=N)N)C(=O)O)[C@@H](C)O [Peptide I27AB] (H-IERSRNLDWYKGPTLLDALKNLNEGKR-OH; N-terminus and C-terminus assumed)	>20 mM
CC(C)C[C@H](NC(=O)[C@H](Cc1c[nH]cn1)NC(=O)[C@H](C)NC(=O)[C@H](CCCCN)NC(=O)[C@H](CO)NC(=O)CNC(=O)[C@H](CCC(=O)O)NC(=O)[C@H](CC(C)C)NC(=O)[C@H](CO)NC(=O)[C@H](CCCCN)NC(=O)[C@H](CC(C)C)NC(=O)[C@H](CCCCN)NC(=O)[C@H](CCC(N)=O)NC(=O)[C@H](CC(C)C)NC(=O)[C@H](CC(C)C)NC(=O)[C@H](CCC(=O)O)NC(=O)[C@H](CCC(=O)O)NC(=O)[C@@H]1CCCN1C(=O)[C@H](CCCNC(=N)N)NC(=O)[C@@H](N)CCCCN)C(=O)N[C@@H](CCC(N)=O)C(=O)N[C@@H](Cc1c[nH]cn1)C(=O)N[C@@H](Cc1c[nH]cn1)C(=O)N[C@@H](CC(=O)O)C(=O)N[C@@H](Cc1c[nH]c2ccccc12)C(=O)N[C@H](C(=O)N[C@@H](CO)C(=O)N[C@@H](CCCCN)C(=O)O)[C@@H](C)O [UGK-41] (H-KRPEELLQKLKSLEGSKAHLQHHDWTSK-OH; N-terminus and C-terminus assumed)	>20 mM
CC[C@H](C)[C@H](NC(=O)[C@H](CCCNC(=N)N)NC(=O)[C@H](CCCNC(=N)N)NC(=O)[C@H](CCC(N)=O)NC(=O)[C@H](Cc1c[nH]c2ccccc12)NC(=O)[C@H](Cc1ccccc1)NC(=O)CNC(=O)[C@@H]1CCCN1C(=O)[C@H](CO)NC(=O)CNC(=O)[C@H](CCC(=O)O)NC(=O)[C@H](CC(C)C)NC(=O)[C@H](CO)NC(=O)[C@H](CCCCN)NC(=O)[C@H](CC(C)C)NC(=O)[C@@H](NC(=O)[C@H](CCC(=O)O)NC(=O)[C@H](CC(C)C)NC(=O)[C@H](CC(C)C)NC(=O)[C@H](CCCCN)NC(=O)[C@H](CCC(=O)O)NC(=O)[C@@H]1CCCN1C(=O)[C@H](CC(C)C)NC(=O)[C@H](CCCCN)NC(=O)[C@@H](N)CCCCN)[C@@H](C)CC)C(=O)N[C@@H](CCCNC(=N)N)C(=O)N[C@@H](CCCNC(=N)N)C(=O)N[C@@H](Cc1c[nH]c2ccccc12)C(=O)N[C@@H](CCCNC(=N)N)C(=O)N[C@@H](CCCNC(=N)N)C(=O)O [UGK-25] (H-KKLPEKLLEILKSLEGSPGFWQRRIRRWRR-OH; N-terminus and C-terminus assumed)	2.5 to 5 mM
CC[C@H](C)[C@H](NC(=O)[C@H](CCCNC(=N)N)NC(=O)[C@H](CCCNC(=N)N)NC(=O)[C@H](CCC(N)=O)NC(=O)[C@H](Cc1c[nH]c2ccccc12)NC(=O)[C@@H](N)Cc1ccccc1)C(=O)N[C@@H](CCCNC(=N)N)C(=O)N[C@@H](CCCNC(=N)N)C(=O)N[C@@H](Cc1c[nH]c2ccccc12)C(=O)N[C@@H](CCCNC(=N)N)C(=O)N[C@@H](CCCNC(=N)N)C(=O)NCC(=O)N[C@@H](CO)C(=O)NCC(=O)N[C@@H](Cc1ccc(O)cc1)C(=O)NCC(=O)N[C@@H](CO)C(=O)N1CCC[C@H]1C(=O)NCC(=O)N[C@@H](CCCNC(=N)N)C(=O)N[C@@H](CCCNC(=N)N)C(=O)N[C@@H](Cc1c[nH]c2ccccc12)C(=O)N[C@@H](Cc1c[nH]c2ccccc12)C(=O)N[C@@H](CCCNC(=N)N)C(=O)N[C@@H](Cc1c[nH]c2ccccc12)C(=O)N[C@@H](Cc1c[nH]c2ccccc12)C(=O)N[C@@H](CCCNC(=N)N)C(=O)O [Peptide 27P-2] (H-FWQRRIRRWRRGSGYGSPGRRWWRWWR-OH; N-terminus and C-terminus assumed)	5 to 10 mM
CSCC[C@H](NC(=O)[C@H](Cc1c[nH]c2ccccc12)NC(=O)[C@H](CCC(N)=O)NC(=O)[C@H](Cc1c[nH]c2ccccc12)NC(=O)[C@H](Cc1ccccc1)NC(=O)[C@H](CCCNC(=N)N)NC(=O)[C@H](CCCNC(=N)N)NC(=O)[C@H](CCC(=O)O)NC(=O)[C@H](CC(C)C)NC(=O)[C@@H]1CCCN1C(=O)[C@H](CO)NC(=O)[C@H](CC(=O)O)NC(=O)[C@H](CC(C)C)NC(=O)[C@H](CC(C)C)NC(=O)[C@H](CCCNC(=N)N)NC(=O)[C@H](CCCNC(=N)N)NC(=O)[C@@H](NC(=O)[C@H](CC(C)C)NC(=O)[C@H](CCC(=O)O)NC(=O)[C@H](CCC(N)=O)NC(=O)[C@H](CC(C)C)NC(=O)[C@H](CCC(N)=O)NC(=O)[C@H](CCC(=O)O)NC(=O)[C@H](CO)NC(=O)CNC(=O)[C@H](CCCNC(=N)N)NC(=O)[C@@H]1CCCN1C(=O)[C@@H](N)CCCCN)[C@@H](C)O)C(=O)N[C@@H](CCCNC(=N)N)C(=O)N[C@@H](CCCNC(=N)N)C(=O)O [UGK-37, KPRGSEQLQELTRRLLDSPLERRFWOWMRR] (H-KPRGSEQLQELTRRLLDSPLERRFWQWMRR-OH; N-terminus and C-terminus assumed)	>20 mM
CC[C@H](C)[C@H](NC(=O)[C@H](CCCCN)NC(=O)[C@H](CC(C)C)NC(=O)[C@@H](NC(=O)[C@H](CCCCN)NC(=O)[C@H](CCCNC(=N)N)NC(=O)[C@H](C)NC(=O)[C@@H]1CCCN1C(=O)[C@H](CCCCN)NC(=O)[C@@H](N)CCCNC(=N)N)C(C)C)C(=O)N[C@@H](CC(C)C)C(=O)NCC(=O)N[C@@H](CCCNC(=N)N)C(=O)NCC(=O)N[C@@H](CO)C(=O)N[C@@H](CCC(=O)O)C(=O)N[C@@H](Cc1ccccc1)C(=O)N[C@@H](Cc1c[nH]c2ccccc12)C(=O)N[C@@H](CCC(N)=O)C(=O)N[C@@H](CCCCN)C(=O)N[C@@H](CCCNC(=N)N)C(=O)N[C@H](C(=O)N[C@@H](CCCNC(=N)N)C(=O)N[C@@H](CCCNC(=N)N)C(=O)N[C@@H](Cc1c[nH]c2ccccc12)C(=O)N[C@@H](CCCNC(=N)N)C(=O)N[C@@H](CCCNC(=N)N)C(=O)O)C(C)C [Peptide 27P-3] (H-RKPARKVLKILGRGSEFWQKRVRRWRR-OH; N-terminus and C-terminus assumed)	10 to 20 mM
